Data on 4 compounds can be found in ChEMBL document CHEMBL1201862, “PubChem BioAssay data set” (2004).

Common to all, as to test: inhibition of tumour cell growth, NCI panel, 48 h
The test system of test [1] is OVCAR-4.
The test system of test [2] is NCI-H23.
Test [3] deals with UACC-257.
Test [4] relates to HCT-116.
Test [5] deals with RPMI-8226.
The test system of test [6] is 786-0.
Test [7] relates to HCT-15.
The test system of test [8] is SF-268.
Test [9] concerns NCI/ADR-RES.
Test [10] concerns SNB-19.
Test [11] relates to COLO 205.
Test [12] has as its system HL-60.
In test [13] the test system is IGROV-1.
Test [14] has as its system NCI-H522.
Test [15] deals with A498.
The subject of test [16] is SF-539.
The subject of test [17] is MOLT-4.
In test [18] the test system is HCC 2998.
Test [19] deals with K562.

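In this assay, cells in 96-well plates receive the compound at five concentrations for 48 hours. Endpoints are linearly interpolated between the surrounding concentrations. The concentration for 50% growth inhibition is given as GI50.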 The source made the active and inactive calls. Cut-off read from the data, not from the text of the source: active = GI50 up to about 1.1 µM and inactive = higher.

Regarding `NC(CNO)C(=O)O` (stereo not drawn), the GI50 in [1], in test [2], in [3], in [4], in [5] and in [6] was > 100 µM (inactive) each time. Also, the GI50 in test [7] was greater than 100 µM; in test [8], > 100 µM (inactive); in test [9] it was > 100 µM (inactive); in test [10] it was > 100 µM (inactive); in [11], > 100 µM (inactive); in test [12], 6.79 µM (inactive). Besides, the GI50 in test [13], in [14], in test [15] and in [16] was > 100 µM (inactive) each time.

With `O=C(Nc1cc(C(=O)Nc2cccc(S(=O)(=O)O)c2)cc(C(=O)Nc2cccc(S(=O)(=O)O)c2)c1)c1cccc(C(=O)Nc2cc(C(=O)Nc3cccc(S(=O)(=O)O)c3)cc(C(=O)Nc3cccc(S(=O)(=O)O)c3)c2)c1`, the GI50 in [1], in test [2], in test [3], in test [17], in [4] and in [5] was > 100 µM (inactive) in each case. Moreover, the GI50 is > 100 µM (inactive) in [6]; > 100 µM (inactive) in [18]; 50.7 µM in test [7]; 25.6 µM (inactive) in test [19]; > 100 µM (inactive) in test [8]; > 100 µM (inactive) in test [9]. The GI50 in test [11] was > 100 µM (inactive); in [12], 17.7 µM (inactive); in test [13] it was > 100 µM (inactive); in test [14], > 100 µM (inactive); in test [15] it was 84.7 µM (inactive); in test [16], > 100 µM (inactive).

For `COc1cc(OC)c2c(=O)c(OC)c(-c3ccc4c(c3)OCO4)oc2c1`, the GI50 in test [1] was > 100 µM (inactive); in test [2], 23.2 µM (inactive); in test [3] it was > 100 µM (inactive); in test [17], > 100 µM (inactive); in test [4], 44.4 µM (inactive); in [6], 36 µM (inactive). The GI50 in test [18] was > 100 µM (inactive); in test [7], greater than 100 µM; in test [19], > 100 µM (inactive); in [8], 20.7 µM (inactive); in test [9], 46.9 µM (inactive); in [10], 22 µM (inactive). The GI50 is > 100 µM (inactive) in [11]; 20.9 µM (inactive) in test [12]; 22.1 µM (inactive) in test [13]; 38.3 µM (inactive) in test [14]; 15.6 µM (inactive) in test [15]; 18.1 µM (inactive) in test [16].

Take `CC(=O)/C(=C/NC(=S)N/N=C1\C(=O)Nc2ccccc21)C(=O)Nc1ccccc1C`: the GI50 was > 100 µM (inactive) in test [1]; > 100 µM (inactive) in test [2]; > 100 µM (inactive) in [3]; > 100 µM (inactive) in test [17]; 95.3 µM (inactive) in test [4]; 82.2 µM (inactive) in [6]. For the same compound, the GI50 is > 100 µM (inactive) in [18]; greater than 100 µM in [7]; > 100 µM (inactive) in test [8]; > 100 µM (inactive) in test [9]; > 100 µM (inactive) in test [10]; > 100 µM (inactive) in test [11]. For the same compound, the GI50 in [12] is 41 µM (inactive); in test [13], 95.3 µM (inactive); in test [15], 57.7 µM (inactive); in test [16] it was > 100 µM (inactive).
